Source: patent publication US20240140938A1, “PREPARATION OF TETRAHYDROINDAZOLE DERIVATIVES AS NOVEL DIACYLGLYCERIDE O-ACYLTRANSFERASE 2 INHIBITORS” (MERCK SHARP & DOHME LLC, priority 2020, published 2024)

Biological target: human DGAT2 (hDGAT2) (Homo sapiens (Human), UniProt Q96PD7)
Test: DGAT2 Enzymatic Activity Assay
Assay type: biochemical
Details: hDGAT2 Sf-9 membrane prep; 13C18-triolein product by LC/MS/MS; 25 μM diolein, 5 μM 13C oleoyl-CoA
Method in brief: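 Enzyme source was membrane fractions from Sf-9 cells infected with untagged hDGAT2 baculovirus. Reactions ran at room temperature, and product 13C18-triolein was quantified by LC/MS/MS against a 13C21-triolein internal standard. % inhibition was normalised to high and low controls, and IC50 derived from it.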

human DGAT2 (hDGAT2), sequence (Q96PD7 whole entry): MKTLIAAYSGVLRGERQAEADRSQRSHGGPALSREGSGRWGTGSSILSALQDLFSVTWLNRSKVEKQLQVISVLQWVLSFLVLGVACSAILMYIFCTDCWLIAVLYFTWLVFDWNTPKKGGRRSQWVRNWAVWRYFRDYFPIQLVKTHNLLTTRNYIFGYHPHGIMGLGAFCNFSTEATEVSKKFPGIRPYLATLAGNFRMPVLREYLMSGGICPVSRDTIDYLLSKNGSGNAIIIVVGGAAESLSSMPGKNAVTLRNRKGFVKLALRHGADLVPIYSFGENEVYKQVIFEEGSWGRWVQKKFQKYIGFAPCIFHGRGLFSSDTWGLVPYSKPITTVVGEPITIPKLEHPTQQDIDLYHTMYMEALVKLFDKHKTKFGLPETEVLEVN

SMILES	IC50
CC(C)n1nc(-c2cncc(OC(F)F)c2)c2c1C[C@H](C(=O)N[C@@H](C)CN1CCO[C@H](C)C1)CC2 [Example 68, (R)-3-(5-(difluoromethoxy)pyridin-3-yl)-1-isopropyl-N-((S)-1-((R)-2-methylmorpholino)propan-2-yl)-4,5,6,7-tetrahydro-1H-indazole-6-carboxamide]	> 10000 nM
Cc1nc2c(-c3nn(C(C)C)c4c3CC[C@@H](C(=O)NC3(C)CS(=O)(=O)C3)C4)cccc2o1 [Example 93, (R)-1-isopropyl-N-(3-methyl-1,1-dioxidothietan-3-yl)-3-(2-methylbenzo[d]oxazol-4-yl)-4,5,6,7-tetrahydro-1H-indazole-6-carboxamide]	> 10000 nM
CC(=O)n1nc(-c2cccc(OC(F)F)c2)c2c1C[C@H](C(=O)N[C@@]1(C)CCS(=O)(=O)C1)CC2 [Example 73, (R)-1-acetyl-3-(3-(difluoromethoxy)phenyl)-N-((S)-3-methyl-1,1-dioxidotetrahydrothiophen-3-yl)-4,5,6,7-tetrahydro-1H-indazole-6-carboxamide]	> 10000 nM
CC1(NC(=O)[C@@H]2CCc3c(-c4cc(OC(F)F)ccc4F)nn(C4CCCC4O)c3C2)CS(=O)(=O)C1 (single isomer, unassigned) [Example 114d]	105 nM
C[C@]1(NC(=O)[C@@H]2CCc3c(-c4cncc(OC(F)F)c4)nn(-c4ccc(F)cn4)c3C2)CCS(=O)(=O)C1 [Example 14, (R)-3-(5-(difluoromethoxy)pyridin-3-yl)-1-(5-fluoropyridin-2-yl)-N-((S)-3-methyl-1,1-dioxidotetrahydrothiophen-3-yl)-4,5,6,7-tetrahydro-1H-indazole-6-carboxamide]	13.9 nM
CC1(NC(=O)C2COc3c(-c4cccc(OC(F)F)c4)nn(-c4ccc(F)cn4)c3C2)CS(=O)(=O)C1 (racemic) [Example 119, 3-(3-(difluoromethoxy)phenyl)-1-(5-fluoropyridin-2-yl)-N-(3-methyl-1,1-dioxidothietan-3-yl)-1,5,6,7-tetrahydropyrano[3,2-c]pyrazole-6-carboxamide]	0.33 nM
CC(C)n1nc(-c2cc(OC(F)F)cnc2C(F)F)c2c1C[C@H](C(=O)NC1(C)CCS(=O)(=O)CC1)CC2 [Example 42, (R)-3-(5-(difluoromethoxy)-2-(difluoromethyl)pyridin-3-yl)-1-isopropyl-N-(4-methyl-1,1-dioxidotetrahydro-2H-thiopyran-4-yl)-4,5,6,7-tetrahydro-1H-indazole-6-carboxamide]	296 nM
CCOc1cccc(-c2nn(C(C)C)c3c2CC[C@@H](C(=O)NC2(C)CCS(=O)(=O)CC2)C3)c1 [Example 33, (R)-3-(3-ethoxyphenyl)-1-isopropyl-N-(4-methyl-1,1-dioxidotetrahydro-2H-thiopyran-4-yl)-4,5,6,7-tetrahydro-1H-indazole-6-carboxamide]	3.3 nM
C[C@]1(NC(=O)[C@@H]2CCc3c(-c4cccc(OC(F)F)c4)nn(Cc4ccccc4)c3C2)CCS(=O)(=O)C1 [Example 77, (R)-1-benzyl-3-(3-(difluoromethoxy)phenyl)-N-((S)-3-methyl-1,1-dioxidotetrahydrothiophen-3-yl)-4,5,6,7-tetrahydro-1H-indazole-6-carboxamide]	577 nM
CCOc1cc(-c2nn(C(C)C(C)(C)O)c3c2CC[C@@H](C(=O)NC2(C)CCS(=O)(=O)CC2)C3)c(F)cn1 (single isomer, unassigned) [Example 109a]	49.5 nM
CNS(=O)(=O)CCNC(=O)[C@@H]1CCc2c(-c3cccc(OC(F)F)c3)nn(C(C)C)c2C1 [Example 71, (R)-3-(3-(difluoromethoxy)phenyl)-1-isopropyl-N-(2-(N-methylsulfamoyl)ethyl)-4,5,6,7-tetrahydro-1H-indazole-6-carboxamide]	> 10000 nM
